Assay results published in patent US20230172994A1, “METHODS OF PROMOTING VASCULOGENESIS” (TissueTech, Inc., priority 2019, published 2023).

What was measured:
Format in all cases: cell-based, human
P10 LNC [1] = assay: Time course mRNA expression by qPCR
Method: (§1) Cell culture: For time course study, 1×10^5/ml of P10 LNC was seeded on three substrates: 3D Matrigel™, HA, or HC-HA/PTX3 in MESCM at 5, 15, 30, 60 mins, 24 h and 48 h (Table 2).
qPCR: Comparisons were made of mRNA expression of HIF1α, HIF1β, HIF2α, SDF-1, CXCR4, Hes1 at 5, 15, 30, 60, 120, 240 min or 24 and 48 h.
Cell culture: 1×10^5/ml of P10 LNC was seeded on three substrates: 3D Matrigel™ HA, or HC-HA/PTX3 in MESCM for 48 h. For time course study on HC-HA/PTX3, P10 LNC will be treated HC-HA/PTX3 for 5, 15, 30, 60 mins, 24 h and 48 h.
qPCR: Comparison mRNA expression VEGF, PDGFα, CD31 and IGF-1 for angiogenesis and NGF and p75^NTR for neurogenesis at 5, 15, 30, 60, 120, 240 min 24 or 48 h on 3D MG, immobilized HA and immobilized HC-HA/PTX3.
(§2) For the siRNA knockdown, 80% confluent P10 LNC on 6-well coated MG were subjected to transfection by mixing 200 μL of serum-free, antibiotic-free MESCM with 4 μL of HiPerFect siRNA transfection reagent (Final dilution, 1:300) and 6 μL of 20 μM of scRNA or siRNAs for BMPR1A, BMPR1B, BMPR2, and ACVR1 at the final concentration of 100 nM, drop-wise, followed by culturing in 1 mL of fresh MESCM at 37° C. for 24 h before soluble HC-HA/PTX3 was added at a final concentration of 20 μg/mL in MESCM.
Total RNAs were extracted from expanded LNC by RNeasy Mini Kit (Qiagen, Valencia, Calif.) according to manufacturer's guideline and 1-2 ug of RNA extract was reverse transcribed to cDNA with reverse-transcribed using Applied Biosystem™ High Capacity Reverse Transcription Kit (Thermo Fisher, Santa Clara, Calif.) using primers. The resultant cDNAs were amplified by specific TaqMan gene expression assay mix and universal PCR master mix in QuantStudio™ 5 Real Time PCR System (Thermo Fisher, Santa Clara, Calif.) with real-time RT-PCR profile consisting of 10 min of initial activation at 95° C., followed by 40 cycles of 15 sec denaturation at 95° C., and 1 min annealing and extension at 60° C. […] Threshold cycle number (Ct) was calculated with QuantStudio Design and. […] The relative gene expression data were analyzed by the comparative CT method (ΔΔCT). […]

P10 LNC [2] = assay: Immunofluorescence staining (cytospin), nuclear translocation
Method: Immunostaining: LNC were then subjected to cytospin to determine nuclear translocation of HIF1α, HIF1β, HIF2α, SDF-1, CXCR4, and Hes1 at 5, 15, 30 and 60 mins.
Single cells of LNC or CSC at different passages were harvested with 0.05% trypsin and 1 mM EDTA at 37° C. for 10 min and prepared for cytospin using Cytofuge (StatSpin Inc., Norwood, Mass.) at 1000 g for 8 min. Cells were fixed with 4% formaldehyde, pH 7.0, for 15 min at room temperature, permeabilized with 0.2% Triton X-100 in PBS for 15 min and blocked with 2% bovine serum albumin (BSA) for 1 h before incubated with primary antibodies for 16 h at 4° C. After 3 washes with PBS, the corresponding Alexa Fluor-conjugated secondary IgG (all 1:100 dilution) were incubated for 60 min and 3 washing with PBS. After 3 washes with PBS, the second primary antibodies were incubated for 60 min and followed with the corresponding Alex Fluor-conjugated secondary IgG. The nucleus was counterstained with Hoechst 33342 before being analyzed with Zeiss LSM 700 confocal microscope (Carl Zeiss, Thornwood, N.Y.). Corresponding mouse and rabbit sera were used as negative controls for primary monoclonal and polyclonal antibodies, respectively.

P10 LNC [3] = assay: Subcellular fractionation and Western blotting
Method: Nuclear and cytoplasmic fractions were prepared using the NE-PER® Nuclear and Cytoplasmic Extraction Reagents Kit (Pierce, Rockford, Ill., USA) as per manufacturer's instruction. Briefly, the treated P10 LNC were washed once on cold PBS and centrifuged at 500 g for 5 min.
The cell pellet was suspended in 100 μL of cytoplasmic extraction reagent I containing protease inhibitor by vortexing. The suspension was incubated on ice for 10 min followed by the addition of 6 μL of a second cytoplasmic extraction reagent II, vortexed for 5s, incubated on ice for 1 min and centrifuged for 5 min at 16 000 g. The supernatant fraction (cytoplasmic extract) was transferred to a pre-chilled tube. The insoluble pellet fraction, which contains crude nuclei, was resuspended in 50 μL of nuclear extraction reagent by vortexing during 15s three times and incubated on ice for 10 min each, then centrifuged for 10 min at 16 000 g. The resulting supernatant, constituting the nuclear extract, was used for the subsequent experiments. Protein concentration was quantitated using the BCA protein assay kit (Pierce). […] Immunoreactive proteins were detected with Western Lighting Chemiluminescence (PerkinElmer, Waltham, Mass.) and images captured by GE ImageQuant LAS 4000 (GE Healthcare Biosciences, Pittsburgh, Pa.).

P4 LNC [4] = assay: Notch signaling and transcript expression in P4 LNC on plastic, 3D Matrigel or immobilized HC-HA/PTX3
LEPC and LNC = assay: Blocking Notch signaling in LEPC+LNC on immobilized HC-HA/PTX3
Method: FIGS. 41A-41C illustrate blocking Notch signaling inhibits BMP and non-canonical Wnt in LEPC and LNC on immobilized HC-HA/PTX3 at 48 hours. FIG. 41A illustrates a graph of mRNA levels of various genes following treatment of HC-HA/PTX3 and HC-HA/PTX3/DAPT in LNCS renunioned with LEPC. FIG. 41B illustrates immunostaining with various markers.

P4 LNC [5] = assay: Immunofluorescence staining (cytospin), nuclear translocation
Method: Cell culture: For time course study, 1×10^5/ml of P4 LNC were seeded on substrates HA or HC-HA/PTX3 in MESCM at 5, 15, 30, 60 min, 24 h and 48 h (Table 3).
Immunostaining: LNC then were subjected to cytospin to determine nuclear translocation of HIF1α, HIF1β, HIF2α, SDF-1, CXCR4, and Hes1 at 5, 15, 30 and 60 min.

P10 LNC [6] = assay: Cell aggregation / sphere formation by phase contrast microscopy
Method: as §1
For expansion, single cells derived from limbal clusters or CSC after digestion with 0.25% trypsin and 1 mM EDTA (T/E) were seeded at 1×10^4/cm^2 in the 6-well plate pre-coated with 5% Matrigel™ in MESCM and cultured in humidified 5% CO2 with media change every 3-4 days for total 6-7 days. For cells culture in three-dimensional (3D) Matrigel, Matrigel was prepared by adding 50% Matrigel diluted in MESCM per chamber of an 8-well chamber slide following incubation at 37° C. for 60 min. LNC cells were seeded in 3D Matrigel and cultured for 24 h or 48 h in MESCM.
as §2

Rac1 = assay: Rho GTPase activity in LNC; conditions: within 60 minutes, HC-HA/PTX3 active at 5 and 15 min, reduced at 30 min
HUVEC or pericytes (LNC) = assay: Cell proliferation by Edu nuclear staining; conditions: HUVEC or pericytes (LNC) alone
From the text: Cells: GFP HUVEC (P3) were purchased from Neuromics (Cat #GF01). These cells were isolated from normal human umbilical vein and transfected with GFP-lentiviral particle at passage 1. Puromycin resistant GFP HUVEC were maintained on fibronectin coated solution in Endo-growth medium containing 5% FBS and growth supplement until passage 3. Cells were split 1:3 every three days when ˜70%-90% confluence is reached. Cells of passage 3-8 were used for all experiments.
LNC (P2-P5) was expanded in MESCM containing 4 ng/ml bFGF and 10 ng/ml LIF on 6-well plastic coated with 5% Matrigel™

With c1cc(CN2CCCNCCNCCCNCC2)ccc1CN1CCCNCCNCCCNCC1 [AMD3100] the “HIF-1α and HIF-1β transcripts” value (P10 LNC [1]; addition of AMD3100) was “upregulated two peaks”, the “transcript levels of BMP2, BMP4 and BMP6, effect of inhibitor” value (P10 LNC [1]; throughout 48 h, with soluble HC-HA/PTX3) was “aborted” and the “Pax6, p75NTR, NGF, Musashi-1, Msx-1 and FoxD3 transcripts, effect of inhibitor” value (P10 LNC [1]; with soluble HC-HA/PTX3) was “significant downregulation”. The CXCR4 staining (P10 LNC [2]; 60 min period, P10 LNC, soluble HC-HA/PTX3 with or without AMD3100, or 3D MG) was “reverted to that of 3D MG”, the “nuclear staining of pSmad1/5” value (P10 LNC [2]; P10 LNC, soluble HC-HA/PTX3 with or without AMD3100) was “absent nuclear staining” and the “immunofluorescence of SDF-1” value (P10 LNC [2]; throughout 60 min) was “became negative”. For the same compound, the “nuclear pSmad1/5” value (P10 LNC [3]; 5, 15, 30 min) was “not promoted” and the “CXCR4 and Pax6 protein in cytoplasmic and nuclear fractions” value (P10 LNC [3]; 15 and 30 min, AMD3100 all time points) was “remain in cytoplasmic fraction”.
In the case of C[C@H](NC(=O)Cc1cc(F)cc(F)c1)C(=O)N[C@H](C(=O)OC(C)(C)C)c1ccccc1 [DAPT], the “cell aggregation of LNC on HC-HA/PTX3, effect of inhibitor” value (P4 LNC [4]) is reported as “did not prevent”, the “Notch1/2/3/Jagged 1/Hes1 signaling with MET epithelial phenotype (p63α, Pax6, Sox9), effect of inhibitor” value (P4 LNC [4]; LNC on HC-HA/PTX3) is reported as “further promoted” and the “nuclear psmad/1/5/8 and c-Jun” value (LEPC and LNC; LEPC+LNC on immobilized HC-HA/PTX3) is reported as “absence”. The quiescence epithelium markers (LEPC and LNC; LEPC+LNC on immobilized HC-HA/PTX3, 48 hours) was “significantly downregulated”.
For hyaluronic acid [HA], the HIF2α (P4 LNC [5]) was “No changes”, the “NICD and SDF1” value (P4 LNC [5]) was “No changed” and the “time of HIF1α nuclear translocation” value (P4 LNC [5]) was “did the same”. For the same compound, the “time of HIF1β nuclear translocation” value (P4 LNC [5]) was 5 to 30 min, the “time of Hes1 nuclear translocation” value (P4 LNC [5]) was 5 to 15 min and the CXCR4 nuclear translocation (P4 LNC [5]; 5, 30 min, transient) was “does not”. For the same compound, the “nuclear PP2A C subunit” value (P10 LNC [2]; 5 and 30 min, comparators entire 60 min) was “significantly less expression”, the CXCR4 localisation (P10 LNC [2]; HC-HA/PTX3: as early as 15 min, prominent at 30 min, no longer nuclear at 60 min) was “membrane translocation” and the “staining of HIF1α and HIF1β” value (P10 LNC [2]; HC-HA/PTX3: at 5 min, HIF1α sustained till 15 and 30 min) was “both cytoplasmic and nuclear”. For the same compound, the “nuclear p-PHD2 (serine 125)” value (P10 LNC [2]; HC-HA/PTX3 at 5 and 15 min, HA and 3D MG throughout 60 min) was “maintained nuclear Phospho-PHD2”, the “earliest nucleus Hes1” value (P10 LNC [2]; P10 LNC) was 15 min and the “cell aggregation as early as 60 min” value (P10 LNC [6]) was “not”. The “Rac1 GTPase activities” value (Rac1) was “gradual decline” and the “cell proliferation (Edu nuclear staining)” value (HUVEC or pericytes (LNC)) was “promoted cell proliferation”.
